# In patent publication US20250144247A1, “FORMULATIONS TO ENHANCE THE DELIVERY OF GENE THERAPY VECTORS” (priority 2023, published 2025):
# Columns and labels:
# mouse airways = experiment: Adenoviral transduction of mouse airways (Ad-luciferase, IVIS); type: in vivo, Balb/c mice; conditions: Ad-luciferase intratracheal, 7% NaCl vs 0.9% NaCl, five days
# Description: 6-8-week-old Balb/c mice were sedated with ketamine/xylazine (87.5+2.5 mg/kg). Ad-CMV-firefly luciferase was delivered intratracheally with 1×10^9 TU formulated with NaCl (0.9% or 7% final) in a 50 ul volume. 5 days later mice were given intraperitoneal D-luciferin (50227, Millipore Sigma, St. Louis, MO) imaged for luminescence expression using the Xenogen IVIS-200.
# [1] = Osmolarity and pH of the solutions; type: physicochemical
# [2] = system: human airway epithelial cells (HAE); type: cell-based
# pig airways = experiment: Viral gene transfer in pig airways; type: in vivo, newborn pigs
# Description: Newborn pigs were sedated using isoflurane and viral vector formulated with NaCl (0.9% or 5% final) and acrosolized 2 ml intratracheally using a MADgic Laryngo-Tracheal Mucosal Atomization Device (Teleflex, Morrisville, NC). Doses for each vector for each pig were as follows: 2.8×10^10 infectious genomic units (IGU) of helper-dependent Ad-CMV-GFP and 7×10^8 TU of GP64 HIV-CMV-GFP. Doses were prepared by mixing a 1.8% NaCl or 10% NaCl stock 1:1 with 1 ml of vector. 1 week later, pigs were humanely euthanized, and lungs were analyzed for GFP expression. Lungs were systematically divided and fixed in 4% paraformaldehyde, subjected to a sucrose gradient, and embedded in OCT for cryosectioning. Sectioned lung slides were mounted using DAPI and imaged using a Keyence All-in-one Fluorescence Microscope BZ-X series (Osaka, Japan).
# To determine cell types transduced in vivo, a pig model that more closely recapitulates the anatomy and cell biology of human airways was used. Newborn pigs received Ad-GFP via intratracheal delivery with 0.9% NaCl or 5% NaCl. Five days after delivery, lungs were collected and GFP expression was visualized under a fluorescence dissecting microscope (data not shown). Lungs were divided into 20 regions for systematic quantification as previously described (data not shown) and scored based on level of expression (0=no expression, 1=low expression, 2=moderate expression, and 3=high expression) (data not shown).
# [3] = system: newborn pig tracheal explants; experiment: Pig tracheal explant transduction ex vivo; conditions: NaCl 5%, apical 2 hours
# Description: 0.25 cm^2 tracheal explants from newborn pigs were cultured on Surgifoam (1972, Ethicon, Raritan, NJ) for 3-5 days prior to transduction. Ad5-mcherry (1×10^9 TU), AAVH22-GFP (2×10^10 vg), and GP64 HIV-GFP (1.75×10^7 TU) were applied with or without NaCl (5%) to the apical surface of the trachea by inverting the trachea onto a tissue culture dish containing the viral solution for 2 hours then returned to an upright position on Surgifoam. 5 days post-transduction, tracheal explants were mounted on a microscope slide and imaged for fluorescent expression using confocal microscopy. Expression was quantified using Image J (FIJI) by measuring fluorescence intensity per high power field.
# Using freshly excised newborn pig tracheal explants maintained on Surgifoam, Ad-GFP or AAVH22-GFP (a pig-tropic AA V capsid)±NaCl (5%) was applied to the apical surface by inverting the tissue in a culture dish for 2 hours. One week later, tissues were fixed and imaged by confocal microscopy. […] Fluorescence was quantified by transduction area per high power field.
# [4] = system: human airway epithelial cells (HAE); experiment: Transepithelial electrical resistance (TEER) of HAE after apical reagent; type: cell-based; conditions: apical 5 minutes; LPC 0.1%, EGTA 250 mM, doxorubicin 5 μM, NaCl 3.6%, Infasurf 35 mg/ml
# Description: The University of Iowa In Vitro Models and Cell Culture Core cultured and maintained human airway epithelial cells (HAE) as previously described (33). Briefly, following enzymatic disassociation of trachea and bronchus epithelia, the cells were seeded onto collagen-coated, polycarbonate transwell inserts (0.4 μm pore size; surface area=0.33 cm^2; Corning Costar, Cambridge, MA). HAE were submerged in Ultroser G (USG) medium for 24 hours (37° C. and 5% CO2) at which point the apical media is removed to encourage polarization and differentiation at an air-liquid interface. Transepithelial electrical resistance was measured using an Ohmmeter […]
# Disrupting the epithelial tight junctions allows Ad5-based viral vectors access to their basolaterally localized coxsackie and adenovirus receptor (CXADR) (12). Unless otherwise specified, these studies use the Ad5 serotype. […] First, reagents were applied to the apical surface of HAE for 5 minutes and then TEER was measured using an ohmmeter. […] In separate cultures, Ad-GFP (MOI=250) in 50 μl of DMEM combined 1:1 with the test reagents was applied to the apical surface for 2 hours. 5 days post-treatment, cells were imaged by fluorescence microscopy.
# [5] = system: human airway epithelial cells (HAE); experiment: Scanning electron microscopy of HAE surface; conditions: NaCl 3.6% for 2 hours vs no NaCl control
# [6] = system: human airway epithelial cells (HAE); experiment: AAV2.5T-GFP transduction of HAE; type: cell-based; conditions: NaCl 4.5%, MOI=100,000 vg/cell, 2 hours, doxorubicin 1 μM pre-treatment, 2 weeks
# [7] = system: cultured cells on plastic; experiment: Gene transfer of cultured cells on plastic with hypertonic saline; type: cell-based
# measles virus (MeV) = experiment: Measles virus (MeV) infection of HAE; type: cell-based, human; conditions: wild-type MeV, NaCl (4%)
# Description: […] After infection, virus inoculums removed. […] After infection, basolateral-infected cultures were returned upright. All MeV infections took place for 4 hours in 37° C. at an MOI of 1 with a total inoculum of 50 μL.
compound,measurement,setting,value
"[Cl-].[Na+] [NaCl, sodium chloride]",luciferase expression (bioluminescence),mouse airways,significantly increased expression in the nose and lung
same,Osmolarity,[1]; 0.9% solution,310 mOsmol/l
same,Osmolarity,[1]; 1% solution,342 mOsmol/l
same,Osmolarity,[1]; 2% solution,684 mOsmol/l
same,Osmolarity,[1]; 3% solution,1027 mOsmol/l
same,unadjusted pH,[1]; 3.6% NaCl in deionized water,~6
same,Osmolarity,[1]; 3.6% solution,1230 mOsmol/l
same,Osmolarity,[1]; 4% solution,1369 mOsmol/l
same,Osmolarity,[1]; 5% solution,1711 mOsmol/l
same,Osmolarity,[1]; 6% solution,2053 mOsmol/l
same,Osmolarity,[1]; 7% solution,2693 mOsmol/l
same,"transduction of primary human CF cultures, GP64 HIV-GFP","[2]; MOI=50, NaCl formulation",remarkable levels of transduction
same,"GFP expression, GP64 HIV vector","[2]; non-CF HAE, 3.5, 4 or 4.5% NaCl, MOI=50",dose-dependent increase in GFP expression
same,"GFP+ score (0-3, 20 lung regions)","pig airways; Ad-GFP intratracheal, NaCl 5% vs 0.9%, five days",significantly increased
same,transduction of ciliated cells and CK5+ basal cells,"pig airways; Ad-GFP, 5% NaCl",transduction of ciliated cells was observed
same,transduction of submucosal glands,"pig airways; Ad-GFP, 5% NaCl",high levels of transduction
same,transduction of large (>500 μm^2) and small (<500 μm^2) airways,"pig airways; Ad-GFP, 5% NaCl vs 0.9% NaCl",significantly more airway transduction
same,transduction by GP64 HIV-GFP,pig airways; NaCl 5% vs 0.9% NaCl,significantly enhanced transduction
same,transduction with Ad and AAVH22 (fluorescence per high power field),[3],markedly enhanced
same,transepithelial electrical resistance (TEER),[4],decreased TEER
same,cell surface integrity and ciliation by SEM,[5],no overt physical differences
same,"GFP expression, AAV-GFP (AAV2.5T)",[6],significantly higher GFP expression
same,effect on cultured cells on plastic,[7],lifting of the cells
same,MeV infection following apical application,measles virus (MeV),occurred only in the presence of NaCl
